MIC data for 13 molecules are collected here from ChEMBL document CHEMBL5143641, “Expanding the Chemical Diversity of Fasamycin Via Genome Mining and Biocatalysis” (2022).

Common to all, as to assay type: functional
In one experiment the test system is Escherichia coli. In words: Antimicrobial activity against Escherichia coli ATCC 25922 assessed as inhibition of microbial growth incubated for 16 hrs under shaking condition by microdilution assay.
The test system of another experiment is Candida albicans. In words: Antimicrobial activity against Candida albicans ATCC 10231 assessed as inhibition of microbial growth incubated for 16 hrs under shaking condition by microdilution assay.
The test system of the next experiment is Staphylococcus aureus. In words: Antimicrobial activity against Staphylococcus aureus ATCC 51650 assessed as inhibition of microbial growth incubated for 16 hrs under shaking condition by microdilution assay.
A further experiment has as its system Bacillus subtilis. In words: Antimicrobial activity against Bacillus subtilis ATCC 23857 assessed as inhibition of microbial growth incubated for 16 hrs under shaking condition by microdilution assay.

`COc1cc(O)c2c(c1)C(C)(C)c1cc3cc(O)cc(-c4c(O)cc(OC)c(Cl)c4C)c3c(O)c1C2=O`: the minimal inhibitory concentration (MIC) in the experiment with Escherichia coli is above 100 µg/mL; in the experiment on Candida albicans it was above 100 µg/mL; in the experiment on Staphylococcus aureus it was 3.1 µg/mL; with Bacillus subtilis, 1.6 µg/mL.
For `COc1cc2c(c(O)c1Cl)C(=O)c1c(cc3cc(O)cc(-c4c(O)cc(OC)c(Br)c4C)c3c1O)C2(C)C`, the MIC with Escherichia coli was above 100 µg/mL; with Candida albicans, above 100 µg/mL; with Staphylococcus aureus, 3.1 µg/mL; in the experiment on Bacillus subtilis, 1.6 µg/mL.
With `COc1cc(O)c(-c2cc(O)cc3cc4c(c(O)c23)C(=O)c2c(O)cc(O)cc2C4(C)C)c(C)c1Br`, the MIC in the experiment on Escherichia coli was above 100 µg/mL; in the experiment with Candida albicans, above 100 µg/mL; in the experiment with Staphylococcus aureus, 3.1 µg/mL; in the experiment on Bacillus subtilis it was 3.1 µg/mL.
Take `COc1cc(C)c(-c2cc(O)cc3cc4c(c(O)c23)C(=O)c2c(cc(OC)c(Cl)c2O)C4(C)C)c(O)c1`: the MIC is above 100 µg/mL in the experiment with Escherichia coli, above 100 µg/mL in the experiment on Candida albicans, 3.1 µg/mL with Staphylococcus aureus and 1.6 µg/mL in the experiment on Bacillus subtilis.
Consider `COc1cc(O)c(-c2cc(O)cc3cc4c(c(O)c23)C(=O)c2c(O)cc(O)cc2C4(C)C)c(C)c1Cl`, for which the MIC with Escherichia coli is above 100 µg/mL; with Candida albicans, above 100 µg/mL; in the experiment with Staphylococcus aureus, 6.3 µg/mL; with Bacillus subtilis it was 6.3 µg/mL.
Turning to `COc1cc(C)c(-c2cc(OC)cc3cc4c(c(O)c23)C(=O)c2c(O)cc(OC)cc2C4(C)C)c(O)c1`, the MIC with Escherichia coli, in the experiment on Candida albicans, with Staphylococcus aureus and with Bacillus subtilis was above 100 µg/mL in each case.
As to `COc1cc(C)c(-c2cc(O)cc3cc4c(c(O)c23)C(=O)c2c(cc(OC)c(Br)c2O)C4(C)C)c(O)c1`, the MIC is above 100 µg/mL in the experiment on Escherichia coli, above 100 µg/mL in the experiment on Candida albicans, 3.1 µg/mL in the experiment on Staphylococcus aureus and 3.1 µg/mL with Bacillus subtilis.
Take `COc1cc(O)c2c(c1)C(C)(C)c1cc3cc(O)cc(-c4c(O)cc(OC)c(Br)c4C)c3c(O)c1C2=O`: the MIC in the experiment on Escherichia coli was above 100 µg/mL; with Candida albicans it was above 100 µg/mL; in the experiment on Staphylococcus aureus, 3.1 µg/mL; with Bacillus subtilis it was 1.6 µg/mL.
Turning to `COc1cc(C)c(-c2cc(O)cc3cc4c(c(O)c23)C(=O)c2c(cc(O)c(Cl)c2O)C4(C)C)c(O)c1`, the minimum inhibitory concentration (MIC) in the experiment with Escherichia coli is above 100 µg/mL; in the experiment on Candida albicans, above 100 µg/mL; in the experiment with Staphylococcus aureus it was 12.5 µg/mL; with Bacillus subtilis it was 12.5 µg/mL.
Regarding `COc1cc(C)c(-c2cc(O)cc3cc4c(c(O)c23)C(=O)c2c(O)cc(OC)cc2C4(C)C)c(O)c1`, the MIC with Escherichia coli is above 100 µg/mL; in the experiment on Candida albicans it was above 100 µg/mL; in the experiment with Staphylococcus aureus, 3.1 µg/mL; in the experiment with Bacillus subtilis it was 1.6 µg/mL.
Regarding `COc1cc(O)c(-c2cc(O)c(Br)c3cc4c(c(O)c23)C(=O)c2c(O)cc(O)cc2C4(C)C)c(C)c1Br`, the minimum inhibitory concentration (MIC) in the experiment on Escherichia coli was above 100 µg/mL; in the experiment with Candida albicans, above 100 µg/mL; in the experiment on Staphylococcus aureus it was 1.6 µg/mL; with Bacillus subtilis, 1.6 µg/mL.
As to `NC[C@H]1O[C@H](O[C@H]2[C@H](O)[C@@H](O[C@H]3O[C@H](CO)[C@@H](O)[C@H](N)[C@H]3O)[C@H](N)C[C@@H]2N)[C@H](O)[C@@H](O)[C@@H]1O` [KANAMYCIN], the MIC was found to be 1.6 µg/mL in the experiment on Staphylococcus aureus and 0.8 µg/mL in the experiment with Bacillus subtilis.
Regarding `COc1cc(C)c(-c2cc(OC)cc3cc4c(c(O)c23)C(=O)c2c(O)cc(O)cc2C4(C)C)c(O)c1`, the minimum inhibitory concentration (MIC) is above 100 µg/mL in the experiment on Escherichia coli, above 100 µg/mL in the experiment with Candida albicans, 6.3 µg/mL in the experiment with Staphylococcus aureus and 12.5 µg/mL in the experiment with Bacillus subtilis.
